From paper PMC9569971, “New Oxazolo[5,4-d]pyrimidines as Potential Anticancer Agents: Their Design, Synthesis, and In Vitro Biological Activity Research” (International Journal of Molecular Sciences, 2022)
“Also recorded” adds a separate entry of the source. Where two headings read alike, the source gives them in different places. Blank lines part the entries; values can stand above or below the molecule they belong to.

Assays:
[1] = MTT viability assay, L929; format: cell-based, murine; settings: mouse, L929 fibroblasts, tested 1–500 µM
Experimental: (§1) When the confluence was greater than 70%, adherent cell lines were detached from the bottle surface with a TrypLE solution and then used in assays or reduced. The cells were collected into centrifuge tubes and centrifuged at 1000× g for 5 min at room temperature. The supernatant was removed to dry. The cell pellets were then resuspended in an appropriate medium. The cells were counted using a Bürker chamber and resuspended in 96-well plates to a cell density of 10,000 cells per well for MTT assay. For the rhodamine accumulation test and the detection of apoptosis assay, cells were seeded at a density of 30,000 per well. In the migration assay, cells were seeded at a density of 20,000 per well, and monolayer formation was awaited.
(§2) In this study, normal human dermal fibroblasts (NHDFs), breast cancer cells (MCF7), human lung adenocarcinoma cells (A549), murine fibroblasts (L929), colon adenocarcinoma cells (HT29), and colorectal adenocarcinoma cells (LoVo) were used. All cell lines were cultured in the recommended media. […] The human lung adenocarcinoma cell line A549 and breast cancer cell line MCF-7 were obtained from the ECACC. These cell lines were cultured in Eagle’s minimal essential medium (MEM). Murine fibroblast L929 (Sigma-Aldrich, Merck Group, Headquarters, Darmstadt, Germany; the European Collection of Authenticated Cell Cultures—ECACC) cells were grown in DMEM. […] All media were supplemented with 10% FBS and 100 µg/mL of penicillin–streptomycin.
(§3) All compounds were dissolved in DMSO and the reference drugs were dissolved in physiological saline to concentrations of 10 mM. Concentrations from 1 to 500 μM in the media recommended for the cell lines were prepared for the tests.
(§4) All of the synthesized derivatives were evaluated via the MTT assay. All cell lines were seeded into 96-well plates at a density of 10,000 cells per well. To allow the cells to adhere to the surface of the plates, they were incubated overnight before the application of the test compounds. […] The tests were performed for concentrations of 1, 5, 10, 25, 50, 100, 250, and 500 μM. The solutions of the test compounds were removed from the culture on the 96-well plates. […] The supernatant was then removed. The violet crystal was dissolved in isopropanol for 30 min by shaking. Absorbance was measured at 570 nm.
(§5) Biological assays were performed in three independent replicates, and each replicate used four samples. Three repetitions were made for the ELISA determinations. For the assessment of cytotoxicity, mathematical models were developed using the GraphPad PRISM software, based on which CC50 was determined. The values of CC50 were estimated based on nonlinear regression using the dependence of the biological effect on the molar concentrations of the compounds (four-parameter logistic model with Hill slope).

[2] = MTT viability assay, NHDF; format: cell-based, human; settings: human, normal human dermal fibroblasts (NHDF), tested 1–500 µM
Experimental: as §1, §2, §3, §4, §5

[3] = tested on: lung adenocarcinoma (A549); assay: MTT viability assay, A549; format: cell-based, human; settings: for SI (selectivity index): CC50 NHDF / CC50 A549; for CC50: Homo sapiens
Experimental: as §1, §2, §3, §4, §5

[4] = tested on: breast adenocarcinoma (MCF7); assay: MTT viability assay, MCF7; format: cell-based, human; settings: for SI (selectivity index): CC50 NHDF / CC50 MCF7; for CC50: Homo sapiens, MCF7, MTT, tested 1–500 µM
Experimental: as §1, §2, §3, §4, §5

[5] = tested on: primary colon adenocarcinoma (HT29); assay: MTT viability assay, HT29; format: cell-based, human; settings: for SI (selectivity index): CC50 NHDF / CC50 HT29; for CC50: tested 1–500 µM
Experimental: as §1, §2, §3, §4, §5

[6] = tested on: metastatic colon adenocarcinoma (LoVo); assay: MTT viability assay, LoVo; format: cell-based, human; settings: for SI (selectivity index): CC50 NHDF / CC50 LoVo; for CC50: Homo sapiens, LoVo, MTT, tested 1–500 µM
Experimental: as §1, §2, §3, §4, §5

[7] = tested on: HT29 primary colon adenocarcinoma cells; assay: Detection of apoptosis (Annexin V FITC / propidium iodide); format: cell-based, human; design: unit not given here; settings: 24 h
Experimental: as §1, with “All cell lines were grown in 5% CO2 at 95% humidity and 37 °C, with both morphology and confluence assessed twice per week. When” for “When”
HT29 primary colon adenocarcinoma cells were grown in 96-well plates for 24 h. The 5 selected derivatives were added at concentrations of 1, 2, 5, and 10 µM, and then incubated for 24 h. The mixture of Annexin V conjugated with fluorescein and propidium iodide in PBS with Mg^2+ and Ca^2+ ions (Thermo Fisher Scientific, Waltham, MA, USA) was then applied. The incubation lasted 20 min at 37 °C. Pictures were taken using a fluorescence microscope. Thirteen images were taken from each well using an EVOS FL fluorescence microscope, with three replications for each compound. The open ImageJ space was used to analyze the number of cells. The Thermo Fisher Dead Cell Apoptosis Kit with Annexin V FITC and Propidium Iodide (PI) detects phosphatidylserine extrusion in apoptotic cells using Annexin V conjugated with a green fluorescent FITC dye and dead cells stained by PI with red fluorescence.

[8] = tested on: normal human dermal fibroblasts (NHDF); assay: MTT viability assay, NHDF; format: cell-based; settings: tested 1–500 µM
Experimental: as §1, §2, §3, §4, §5

[9] = tested on: HT29 cells; assay: Migration (scratch) assay; format: cell-based, human; settings: control T 155558.2, control T0 544366.45
Experimental: The scratch test was performed to verify that the tested compound 3g could inhibit the formation of metastases by the HT29 cell line. The seeded HT29 cells were incubated until they formed a monolayer over the entire surface of the well. Then, a scratch test was performed by making a scratch in the monolayer and measuring its width—that is, To, amounting to 544,366.45 μm^2. Freshly prepared compounds were added to the HT29 cells at concentrations of 10, 25, 50, and 100 μM. Breeding plates were incubated for 24 h. The next day, scratch width was measured again using the ImageJ open-source platform. […] The lowest cellular overgrowth of HT29 culture occurred at the concentration of 100 μM for the compound. Compound 3g inhibited the migration of HT29 cells more strongly than the reference drugs, showing that it has the potential to inhibit metastasis. The width of the scratch after 24 h when no compound was applied to the cells was used as a control (T = 155,558.2 μm^2).
as §1, with “All cell lines were grown in 5% CO2 at 95% humidity and 37 °C, with both morphology and confluence assessed twice per week. When” for “When”
After seeding, HT29 cells were incubated until they formed a monolayer over the entire surface of the well. A scratch was made on the surface overgrown with cells, and then photomicrographs of the scratch were taken using the EVOS FL microscope. The freshly prepared compound 3g and the reference drugs were added at concentrations of 10, 25, 50, and 100 µM. Then, they were incubated for 24 h, and micrographs were performed at that time using the EVOS FL microscope. The scratch width was measured using the ImageJ open-source platform. The measurement of scratch width was also performed after 24 h without adding compounds.

[10] = tested on: A549; settings: cited from earlier work
[11] = tested on: HT29; settings: ref 70; cited from earlier work

melting point: 220 to 221 °C (dec.)
Structure (SMILES): CCCNc1ncnc2oc(-c3c(C)noc3N)nc12 [Compound 3c, 2-(5-Amino-3-methylisoxazol-4-yl)-7-N-propylaminooxazolo[5,4-d]pyrimidine]
CC50 [1]: 90.6 ± 8.75 µM | CC50 [2]: 172 ± 14.5 µM | CC50 ± SD ([3]; A549, MTT, tested 1–500 µM): no activity | SI (selectivity index) [4]: 0.862 | CC50 [4]: 199 ± 16.1 µM | SI (selectivity index) [5]: 0.766 | CC50 ([5]; Homo sapiens, HT-29, HT29, MTT): 224 ± 23.1 µM

Structure (SMILES): CCCCCNc1ncnc2oc(-c3c(C)noc3N)nc12 [Compound 3e, 2-(5-Amino-3-methylisoxazol-4-yl)-7-N-pentylaminooxazolo[5,4-d]pyrimidine]
CC50 [1]: 89.2 ± 6.04 µM | CC50 [2]: 125 ± 11.5 µM | SI (selectivity index) [3]: 0.999 | CC50 ([3]; A549, MTT, tested 1–500 µM): 125 ± 12.1 µM | SI (selectivity index) [4]: 0.804 | CC50 [4]: 155 ± 15.5 µM | SI (selectivity index) [6]: 0.702 | CC50 [6]: 178 ± 6.65 µM | SI (selectivity index) [5]: 0.963 | CC50 ([5]; Homo sapiens, HT-29, HT29, MTT): 129 ± 10 µM | apoptosis mean ([7]; 1 μM): 6.20 | late apoptosis mean ([7]; 1 μM): 11.11 | necrosis mean ([7]; 1 μM): 4.53 | percent live (viable) cells ([7]; 1 μM): 78.17 | apoptosis mean ([7]; 2 μM): 4.33 | late apoptosis mean ([7]; 2 μM): 12.44 | necrosis mean ([7]; 2 μM): 9.43 | percent live (viable) cells ([7]; 2 μM): 73.80 | apoptosis mean ([7]; 5 μM): 5.40 | late apoptosis mean ([7]; 5 μM): 18.31 | necrosis mean ([7]; 5 μM): 10.22 | percent live (viable) cells ([7]; 5 μM): 66.07 | apoptosis mean ([7]; 10 μM): 4.05 | late apoptosis mean ([7]; 10 μM): 22.59 | necrosis mean ([7]; 10 μM): 20.74 | percent live (viable) cells ([7]; 10 μM): 52.63

Structure (SMILES): Cc1noc(N)c1-c1nc2c(NCCN(C)C)ncnc2o1 [Compound 3f, 2-(5-Amino-3-methylisoxazol-4-yl)-7-N-[2-(N,N-dimethylamino)ethyl]aminooxazolo[5,4-d]pyrimidine]
CC50 [1]: 207 ± 16.5 µM | CC50 [2]: 172 ± 20.7 µM | SI (selectivity index) [3]: 1.161 | CC50 ([3]; A549, MTT, tested 1–500 µM): 148 ± 13.8 µM | SI (selectivity index) [4]: 0.881 | CC50 [4]: 195 ± 12 µM | SI (selectivity index) [6]: 0.729 | CC50 [6]: 235 ± 13 µM | SI (selectivity index) [5]: 1.124 | CC50 ([5]; Homo sapiens, HT-29, HT29, MTT): 153 ± 15 µM | apoptosis mean ([7]; 1 μM): 7.07 | late apoptosis mean ([7]; 1 μM): 3.15 | necrosis mean ([7]; 1 μM): 0.16 | percent live (viable) cells ([7]; 1 μM): 89.62 | apoptosis mean ([7]; 2 μM): 3.08 | late apoptosis mean ([7]; 2 μM): 7.34 | necrosis mean ([7]; 2 μM): 5.76 | percent live (viable) cells ([7]; 2 μM): 83.82 | apoptosis mean ([7]; 5 μM): 6.76 | late apoptosis mean ([7]; 5 μM): 12.74 | necrosis mean ([7]; 5 μM): 5.73 | percent live (viable) cells ([7]; 5 μM): 74.77 | apoptosis mean ([7]; 10 μM): 18.64 | late apoptosis mean ([7]; 10 μM): 6.51 | necrosis mean ([7]; 10 μM): 2.78 | percent live (viable) cells ([7]; 10 μM): 72.06

Structure (SMILES): Cc1noc(N)c1-c1nc2c(NCCN3CCOCC3)ncnc2o1 [Compound 3j, 2-(5-Amino-3-methylisoxazol-4-yl)-7-N-[2-(morpholin-4-yl)ethyl]aminooxazolo[5,4-d]pyrimidine]
CC50 [1]: 52.9 ± 9.51 µM | CC50 ± SD [8]: no toxicity at all; also recorded: Non-toxic | SI (selectivity index) [4]: >>1 | CC50 [4]: 197 ± 13.1 µM | SI (selectivity index) [5]: >>1 | CC50 ([5]; Homo sapiens, HT-29, HT29, MTT): 99.9 ± 10.9 µM | apoptosis mean ([7]; 1 μM): 5.45 | late apoptosis mean ([7]; 1 μM): 29.25 | necrosis mean ([7]; 1 μM): 8.01 | percent live (viable) cells ([7]; 1 μM): 57.30 | apoptosis mean ([7]; 2 μM): 8.18 | late apoptosis mean ([7]; 2 μM): 26.44 | necrosis mean ([7]; 2 μM): 3.92 | percent live (viable) cells ([7]; 2 μM): 61.47 | apoptosis mean ([7]; 5 μM): 8.28 | late apoptosis mean ([7]; 5 μM): 30.59 | necrosis mean ([7]; 5 μM): 3.45 | percent live (viable) cells ([7]; 5 μM): 57.69 | apoptosis mean ([7]; 10 μM): 1.34 | late apoptosis mean ([7]; 10 μM): 13.55 | necrosis mean ([7]; 10 μM): 32.35 | percent live (viable) cells ([7]; 10 μM): 52.76

Structure (SMILES): O=c1[nH]cc(F)c(=O)[nH]1 [Compound 5-FU, 5-fluorouracil, reference compound]
CC50 [1]: 38.1 ± 7.13 µM | CC50 [2]: 20.4 ± 2.97 µM | SI (selectivity index) [3]: 0.076 | CC50 ([3]; A549, MTT, tested 1–500 µM): 269 ± 17.2 µM | SI (selectivity index) [4]: 0.094 | CC50 [4]: 217 ± 20 µM | SI (selectivity index) [6]: 0.282 | SI (selectivity index) [5]: 0.053 | CC50 ([5]; HT29, MTT): 381 ± 25.5 µM | CC50 ([5]; Homo sapiens, HT-29, HT29, MTT): 381 µM | apoptosis mean ([7]; 1 μM): 7.92 | late apoptosis mean ([7]; 1 μM): 31.72 | necrosis mean ([7]; 1 μM): 10.48 | percent live (viable) cells ([7]; 1 μM): 59.77 | apoptosis mean ([7]; 2 μM): 10.65 | late apoptosis mean ([7]; 2 μM): 28.91 | necrosis mean ([7]; 2 μM): 8.86 | percent live (viable) cells ([7]; 2 μM): 63.94 | apoptosis mean ([7]; 5 μM): 10.75 | late apoptosis mean ([7]; 5 μM): 33.06 | necrosis mean ([7]; 5 μM): 8.39 | percent live (viable) cells ([7]; 5 μM): 60.16 | apoptosis mean ([7]; 10 μM): 3.81 | late apoptosis mean ([7]; 10 μM): 16.02 | necrosis mean ([7]; 10 μM): 34.82 | percent live (viable) cells ([7]; 10 μM): 55.23 | scratch width after 24 h, mean ([9]; 10 μM): 155098.248 μm^2 | scratch width after 24 h, mean ([9]; 25 μM): 192391.405 μm^2 | scratch width after 24 h, mean ([9]; 50 μM): 198312.887 μm^2 | scratch width after 24 h, mean ([9]; 100 μM): 282974.4 μm^2

Structure (SMILES): COc1cc2nccc(Oc3ccc(NC(=O)NC4CC4)c(Cl)c3)c2cc1C(N)=O [Lenvatinib]
IC50 ([10]; listed as lenvatinib): almost no effect | IC50 ([10]; ref 69): No effect ^f | IC50 [11]: 431 µM
